We go through 10 compounds from US8188085B2, “Antifungal agents” (Merck Sharp & Dohme Corp., priority 2008, dated 2012).

glucan synthase (GS) prepared from Candida albicans MY1055, sequence (O13428 1-1897): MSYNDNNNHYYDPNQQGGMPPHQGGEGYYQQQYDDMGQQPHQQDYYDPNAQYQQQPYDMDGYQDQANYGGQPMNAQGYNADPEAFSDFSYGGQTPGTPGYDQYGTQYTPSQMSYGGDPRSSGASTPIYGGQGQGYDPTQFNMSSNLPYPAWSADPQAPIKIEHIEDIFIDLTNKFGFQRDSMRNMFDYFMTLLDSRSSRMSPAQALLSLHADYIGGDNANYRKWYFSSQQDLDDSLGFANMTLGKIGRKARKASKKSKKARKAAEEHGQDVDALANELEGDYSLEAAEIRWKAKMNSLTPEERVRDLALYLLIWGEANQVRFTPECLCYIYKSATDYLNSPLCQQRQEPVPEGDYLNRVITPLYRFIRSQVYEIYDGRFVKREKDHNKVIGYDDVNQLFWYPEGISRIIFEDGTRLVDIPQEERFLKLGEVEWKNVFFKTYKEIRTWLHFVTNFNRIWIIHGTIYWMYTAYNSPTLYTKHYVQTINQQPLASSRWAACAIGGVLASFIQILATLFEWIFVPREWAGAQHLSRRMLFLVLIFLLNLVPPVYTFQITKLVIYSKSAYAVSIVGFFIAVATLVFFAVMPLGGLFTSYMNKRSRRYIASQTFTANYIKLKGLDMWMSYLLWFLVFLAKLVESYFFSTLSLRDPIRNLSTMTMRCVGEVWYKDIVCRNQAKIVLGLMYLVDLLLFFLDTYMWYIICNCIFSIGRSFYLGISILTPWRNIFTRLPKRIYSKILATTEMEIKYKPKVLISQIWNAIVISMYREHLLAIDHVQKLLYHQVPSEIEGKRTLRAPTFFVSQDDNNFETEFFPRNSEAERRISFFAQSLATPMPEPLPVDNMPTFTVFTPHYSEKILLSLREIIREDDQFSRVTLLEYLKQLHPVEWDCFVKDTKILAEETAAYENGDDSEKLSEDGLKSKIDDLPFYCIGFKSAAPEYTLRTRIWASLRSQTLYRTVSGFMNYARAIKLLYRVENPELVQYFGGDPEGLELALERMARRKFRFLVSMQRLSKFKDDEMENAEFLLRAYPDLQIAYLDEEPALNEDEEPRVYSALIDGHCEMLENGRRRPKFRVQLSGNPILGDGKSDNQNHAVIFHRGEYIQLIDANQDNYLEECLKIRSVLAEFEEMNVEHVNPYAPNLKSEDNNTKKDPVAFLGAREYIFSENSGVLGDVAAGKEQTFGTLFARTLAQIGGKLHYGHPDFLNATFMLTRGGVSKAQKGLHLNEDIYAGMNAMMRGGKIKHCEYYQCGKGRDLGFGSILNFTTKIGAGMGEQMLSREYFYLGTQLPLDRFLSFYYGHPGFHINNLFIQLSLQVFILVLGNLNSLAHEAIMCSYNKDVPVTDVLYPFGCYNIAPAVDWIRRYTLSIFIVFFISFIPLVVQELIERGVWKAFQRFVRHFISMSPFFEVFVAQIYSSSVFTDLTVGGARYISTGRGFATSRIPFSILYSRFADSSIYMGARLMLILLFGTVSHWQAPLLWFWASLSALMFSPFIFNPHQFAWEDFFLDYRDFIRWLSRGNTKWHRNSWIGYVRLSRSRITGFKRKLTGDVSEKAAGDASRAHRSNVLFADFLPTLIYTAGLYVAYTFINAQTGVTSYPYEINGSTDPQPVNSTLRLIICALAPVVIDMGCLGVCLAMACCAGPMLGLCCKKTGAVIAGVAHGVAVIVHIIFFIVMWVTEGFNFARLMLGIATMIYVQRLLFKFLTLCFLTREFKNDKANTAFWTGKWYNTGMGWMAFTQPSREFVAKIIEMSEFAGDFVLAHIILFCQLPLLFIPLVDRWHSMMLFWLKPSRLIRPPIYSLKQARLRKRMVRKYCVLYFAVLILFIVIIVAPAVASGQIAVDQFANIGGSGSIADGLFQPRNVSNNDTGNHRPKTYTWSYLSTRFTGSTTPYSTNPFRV

This assay concerns the target glucan synthase (GS) prepared from Candida albicans MY1055 (Candida albicans, UniProt O13428). Kind of assay: Glucan synthase inhibition (polymerization assay, 96-well). The format is biochemical. Particulars: GS from C. albicans MY1055; 60 min incubation at 22° C.; read-out: Candida Albicans GS IC50 (converted). The procedure: The in vitro evaluation of glucan synthase inhibitory activity of compounds was measured in a polymerization assay in 96-well format. Each well contained 100 μL of ^3H-UDPG at 0.5 mM (6000 to 8000 dpm/nmol), 50 mM HEPES pH 7.5 (Sigma), 10% w/v glycerol (Sigma), 1.5 mg/mL bovine serum albumin (Sigma A 9647. Lot 44H0190), 25 mM KF (Fisher), 1 mM EDTA (Gibco ULTRAPURE), 25 μM GTP-γ-S, enzyme sufficient to give 3 to 6 nmoles incorporation during the 60 min incubation at 22° C., and test compound added from wells in 3-fold serial dilutions in 100% DMSO (1 μL/well). The reaction was stopped by the addition of 100 μL of 20% trichloroacetic acid. Plates were chilled for a minimum of 10 min, and precipitated glucan collected by filtration on GF/C plates (Packard UNIFILTER®-96), washed with 5 cycles of water (about 1 mL/well each cycle) using a Packard FILTERMATE HARVESTER. 40 μL/well scintillation fluid (Packard ULTIMA GOLD TM-XR) was added and the sealed plates counted in a WALLAC BETA counter in top-counting mode at an efficiency of approximately 40%.
Stock solutions were stored at 10 mg/mL in DMSO at −20° C. For each new enzyme preparation, the initial titration performed started at 1 mg/mL, which was prepared by making a 10-fold dilution in DMSO (5 μL to 50 μL). 40 μL of this stock was placed in column 12 of a round-bottomed 96-well microtiter plate. 40 μL DMSO was added to columns 1 to 11 in the same row and ten 3-fold serial dilutions performed, by transferring 20 μL from column 12 to column 11 etc., with 4 mixings before each transfer. No test compound was transferred to from column 2 to column 1. Duplicate aliquots of 1 μL of all 12 dilutions were then transferred to the side walls of a 96-well Bioblock 1.1 mL plate (Fisher brand) to create two rows.
Graphs of the primary data were created in PRISM software (the average of two determinations) using PRISM's curve fitting program (sigmoidal dose response non-linear regression). The amount of compound required to inhibit glucan synthase activity by 50% in this assay (IC50−ng/mL) was calculated.
Routine analysis was performed with glucan synthase (GS) prepared from Candida albicans MY1055 by the following procedure: MY1055 was grown in 10 liters YPD medium (10 g yeast extract, 20 g tryptone, 20 g glucose per liter) with vigorous shaking at 30° C., to early stationary phase. Cells were harvested by centrifugation, the pellet was washed and frozen at −70° C. until breakage. Thawed pellets were shaken with an equal volume of breakage buffer (50 mM HEPES pH 7.4, 10% glycerol, 1 mM EDTA, 1 mM PMSF, 1 mM DTT) and 4 times their weight of 0.5 mm acid washed glass beads for 2 hours at 4° C. Extent of breakage was assessed visually at 40× magnification. After low speed centrifugation to remove cell debris, the supernatant was centrifuged at 100,000×g for 60 min. to separate membranes plus ribosomes from cytoplasmic components. Membranes were further washed two additional times with breakage buffer using the same centrifugation conditions and finally suspended in breakage buffer at 25 to 30 mg/mL protein (Biorad) for storage at −70° C. Extraction of GS activity from membranes was performed at a protein concentration of 5 mg/mL in extraction buffer (50 mM NaPO4 pH 7.5, 0.1 M KCl, 0.1M Na citrate, 20% glycerol, 5 μM GTP-γ-S, 1 mM DTT, 1 mM PMSF, 3 μg/mL pepstatin) plus 0.25% W1 by gentle mixing at 4° C. for 60 min, followed by centrifugation at 100,000×g for 60 min. After centrifugation, clear supernatant was removed from a pellet consisting of a hard layer usually with small amounts of gelatinous unextracted membranes above it.
Trapping was initiated immediately by 5-fold dilution in trapping buffer (50 mM HEPES pH 7.5, 10 mM KF, 1 mM EDTA, 2 mg/mL BSA) plus 2.5 mM UDPG and 10 μM GTP-γ-S. After incubation at 25° C. for 60 to 90 minutes, glucan was harvested by low speed centrifugation (3,000×g, 10 min). […]
A word on the IC50: it is the point on the concentration scale where inhibition reaches its midpoint. As for `CN[C@](C)(CO[C@H]1[C@H](n2cncn2)C[C@@]23COC[C@]1(C)[C@@H]2CC[C@H]1C3=CC[C@@]2(C)[C@H](C(=O)O)[C@@](C)([C@H](C)C(C)C)CC[C@]12C)C(C)C` [Example 3, (1S,4aR,6aS,7R,8R,10aR,10bR,12aR,14R,15R)-15-[[(2S)-2,3-dimethyl-2-(methylamino)butyl]oxy]-8-[(1R)-1,2-dimethylpropyl]-14-(1H-1,2,4-triazol-1-yl)-1,6,6a,7,8,9,10,10a,10b,11,12,12a-dodecahydro-1,6a,8,10a-tetramethyl-4H-1,4a-propano-2H-phenanthro[1,2-c]pyran-7-carboxylic acid], the IC50 is 26 nM.
The result for `CC(C)[C@@H](C)[C@@]1(C)CC[C@]2(C)[C@H]3CC[C@@H]4[C@@]5(COC[C@@]4(C)[C@@H](OC[C@](C)(N)C(C)C)[C@H](n4ncnc4C(=O)NCC(F)(F)F)C5)C3=CC[C@@]2(C)[C@@H]1C(=O)O` [Example 80, (1S,4aR,6aS,7R,8R,10aR,10bR,12aR,14R,15R)-15-[[(2R)-2-amino-2,3-dimethylbutyl]oxy]-8-[(1R)-1,2-dimethylpropyl]-14-[5-[[(2,2,2-trifluoroethyl)amino]carbonyl]-1H-1,2,4-triazol-1-yl]-1,6,6a,7,8,9,10,10a,10b,11,12,12a-dodecahydro-1,6a,8,10a-tetramethyl-4H-1,4a-propano-2H-phenanthro[1,2-c]pyran-7-carboxylic acid] reads 10.5 nM; that for `CNC(=O)c1ncnn1[C@@H]1C[C@@]23COC[C@](C)([C@@H]2CC[C@H]2C3=CC[C@@]3(C)[C@H](C(=O)O)[C@@](C)([C@H](C)C(C)C)CC[C@]23C)[C@H]1OC[C@](C)(N)C(C)(C)C` [Example 89, (1S,4aR,6aS,7R,8R,10aR,10bR,12aR,14R,15R)-15-[[(2R)-2-amino-2,3,3-trimethylbutyl]oxy]-8-[(1R)-1,2-dimethylpropyl]-14-[5-[(methylamino)carbonyl]-1H-1,2,4-triazol-1-yl]-1,6,6a,7,8,9,10,10a,10b,11,12,12a-dodecahydro-1,6a,8,10a-tetramethyl-4H-1,4a-propano-2H-phenanthro[1,2-c]pyran-7-carboxylic acid], 11.3 nM; that for `CC(C)[C@@H](C)[C@@]1(C)CC[C@]2(C)[C@H]3CC[C@@H]4[C@@]5(COC[C@@]4(C)[C@@H](OC[C@](C)(N)C(C)(C)C)[C@H](n4ncnc4C4CCOCC4)C5)C3=CC[C@@]2(C)[C@@H]1C(=O)O` [Example 285, (1S,4aR,6aS,7R,8R,10aR,10bR,12aR,14R,15R)-15-[[(2R)-2-amino-2,3,3-trimethylbutyl]oxy]-8-[(1R)-1,2-dimethylpropyl]-14-[5-(tetrahydro-2H-pyran-4-yl)-1H-1,2,4-triazol-1-yl]-1,6,6a,7,8,9,10,10a,10b,11,12,12a-dodecahydro-1,6a,8,10a-tetramethyl-4H-1,4a-propano-2H-phenanthro[1,2-c]pyran-7-carboxylic acid], 4.07 nM.
As for `COC(=O)c1ncn([C@@H]2C[C@@]34COC[C@](C)([C@@H]3CC[C@H]3C4=CC[C@@]4(C)[C@H](C(=O)O)[C@@](C)([C@H](C)C(C)C)CC[C@]34C)[C@H]2OC[C@](C)(N)C(C)C)n1` (single isomer, unassigned) [Example 8A], the half-inhibitory concentration (IC50) was 5.74 nM.
The result for `CC(C)[C@@H](C)[C@@]1(C)CC[C@]2(C)[C@H]3CC[C@@H]4[C@@]5(COC[C@@]4(C)[C@@H](OC[C@](C)(N)C(C)C)[C@H](n4nc(N)nc4C(N)=O)C5)C3=CC[C@@]2(C)[C@@H]1C(=O)O` [Example 119, (1S,4aR,6aS,7R,8R,10aR,10bR,12aR,14R,15R)-14-[3-amino-5-(aminocarbonyl)-1H-1,2,4-triazol-1-yl]-15-[[(2R)-2-amino-2,3-dimethylbutyl]oxy]-8-[(1R)-1,2-dimethylpropyl]-1,6,6a,7,8,9,10,10a,10b,11,12,12a-dodecahydro-1,6a,8,10a-tetramethyl-4H-1,4a-propano-2H-phenanthro[1,2-c]pyran-7-carboxylic acid] reads 12.9 nM.
With `CN[C@@](C)(CO[C@H]1[C@H](n2ncnc2C(=O)NC(C)C)C[C@@]23COC[C@]1(C)[C@@H]2CC[C@H]1C3=CC[C@@]2(C)[C@H](C(=O)O)[C@@](C)([C@H](C)C(C)C)CC[C@]12C)C(C)C` [Example 38, (1S,4aR,6aS,7R,8R,10aR,10bR,12aR,14R,15R)-15-[[(2R)-2,3-dimethyl-2-(methylamino)butyl]oxy]-8-[(1R)-1,2-dimethylpropyl]-14-[5-[[(1-methylethyl)amino]carbonyl]-1H-1,2,4-triazol-1-yl]-1,6,6a,7,8,9,10,10a,10b,11,12,12a-dodecahydro-1,6a,8,10a-tetramethyl-4H-1,4a-propano-2H-phenanthro[1,2-c]pyran-7-carboxylic acid], the IC50 is 17.6 nM.
The result for `CCCNS(=O)(=O)c1ncnn1[C@@H]1C[C@@]23COC[C@](C)([C@@H]2CC[C@H]2C3=CC[C@@]3(C)[C@H](C(=O)O)[C@@](C)([C@H](C)C(C)C)CC[C@]23C)[C@H]1OCC(N)(CC)CC` [Example 126, (1S,4aR,6aS,7R,8R,10aR,10bR,12aR,14R,15R)-15-(2-amino-2-ethylbutoxy)-8-[(1R)-1,2-dimethylpropyl]-14-[5-[(propylamino)sulfonyl]-1H-1,2,4-triazol-1-yl]-1,6,6a,7,8,9,10,10a,10b,11,12,12a-dodecahydro-1,6a,8,10a-tetramethyl-4H-1,4a-propano-2H-phenanthro[1,2-c]pyran-7-carboxylic acid] reads 34.2 nM; that for `CC(C)[C@@H](C)[C@@]1(C)CC[C@]2(C)[C@H]3CC[C@@H]4[C@@]5(COC[C@@]4(C)[C@@H](OC[C@](C)(N)C(C)(C)C)[C@H](n4ncnc4-c4ccc(O)nc4)C5)C3=CC[C@@]2(C)[C@@H]1C(=O)O` [Example 218, (1S,4aR,6aS,7R,8R,10aR,10bR,12aR,14R,15R)-15-[[(2R)-2-amino-2,3,3-trimethylbutyl]oxy]-8-[(1R)-1,2-dimethylpropyl]-14-[5-(6-hydroxy-3-pyridinyl)-1H-1,2,4-triazol-1-yl]-1,6,6a,7,8,9,10,10a,10b,11,12,12a-dodecahydro-1,6a,8,10a-tetramethyl-4H-1,4a-propano-2H-phenanthro[1,2-c]pyran-7-carboxylic acid], 1.07 nM; that for `CC(C)[C@@H](C)[C@@]1(C)CC[C@]2(C)[C@H]3CC[C@@H]4[C@@]5(COC[C@@]4(C)[C@@H](OC[C@](C)(N)C(C)C)[C@H](n4nc(Cl)nc4Cl)C5)C3=CC[C@@]2(C)[C@@H]1C(=O)O` [Example 34, (1S,4aR,6aS,7R,8R,10aR,10bR,12aR,14R,15R)-15-[[(2R)-2-amino-2,3-dimethylbutyl]oxy]-14-(3,5-dichloro-1H-1,2,4-triazol-1-yl)-8-[(1R)-1,2-dimethylpropyl]-1,6,6a,7,8,9,10,10a,10b,11,12,12a-dodecahydro-1,6a,8,10a-tetramethyl-4H-1,4a-propano-2H-phenanthro[1,2-c]pyran-7-carboxylic acid], 46.6 nM.
